Experimental data published in EP2487185A1, “Hexapeptide with improved activity in the repair of cellular DNA of dermal cells” (Clinuvel Pharmaceuticals Limited, priority 2011, dated 2012).
Non-standard residues stand in square brackets, D forms with d. Nle = CCCC[C@H](N)C(=O)O

What was measured:
Format in all cases: cell-based, human
melanocytic strain 10.3c = test: UV-induced generation of hydrogen peroxide (luminol luminescence); details: 1 nM, 105 mJ/cm^2 UV, 0, 30 and 45 minutes after UV
Excerpt: (§1) With reference to Figs. 10 and 11, melanocytes were irradiated with a bank of FS 20 lamps, with 75% emission in the UVB, and 25% emission in the UVA spectra, with peak emission at 313 nm wavelength. Any emission of UVC rays from the UV source (FS 20 lamps) was blocked by Kodacel filter. Prior to irradiation, the culture medium was replaced by PBS, which was removed after UV exposure, and fresh medium added.
(§2) Melanocytes were irradiated with 105 mJ/cm^2 UV, and treated immediately while in PBS with 0, 1 nM α-MSH or 1 nM CUV9900. Generation of hydrogen peroxide, representative of reactive oxygen species (ROS), was determined by measuring the luminescence of luminol at 0, 30, and 45 min after UV exposure. Triplicate dishes were included in each group, and duplicate samples from each dish were used for measurement of hydrogen peroxide at each time point. Each data point represents the mean of 6 determinations/group ±S.E.

melanocytic strain 1505b = test: as above; details: strain 1505b; 1 nM; 105 mJ/cm^2 UV; 0, 30 and 45 minutes after UV
Excerpt: as §1, §2

[1] = test system: lightly pigmented strain 1563c and strain 102b; test: Ultrastructural visualization of DOPA-stained HM (electron microscopy); details: 0.1 nM or 1 nM CUV9900 or 1 nM MSH; strains 1563c and 102b
Protocol: (§3) With reference to Figs. 14 and 15, two melanocytic strains, a lightly pigmented strain 1563c of Fig. 14 and strain 102b of Fig. 15 were plated in 4-well chamber slides and treated […] with either 0.1 nM or 1 nM CUV9900 or 1 nM MSH for a total of 6 days. Cells were processed for electron microscopy in the presence or absence of histochemical reaction with DOPA. Microtome sections were analyzed in a JEOL JEM-1230 transmission electron microscope and photomicrographs (15,000 X) of the perinuclear area and dendrites were taken for each experimental group.

melanocyte strain 1513c = test: Tyrosinase activity as a measure of stability / residual effect; details: strain 1513c; 1 nM peptide incubated 5-7 hours at 37 degrees Celsius
Protocol: To determine the residual effect of CUV9900, as compared to NDP-MSH and α-MSH, on tyrosinase activity, melanocytes were treated with either CUV9900 or NDP-MSH at the concentrations previously described for a total of 3 days. Tyrosinase activity was measured at the end of the 3 days of treatment, and 2 and 4 days after maintenance of the melanocytes in the complete absence of any treatment. With continued reference to Figs. 7, 8 and 9, to determine the stability of CUV9900 versus that of NDP-MSH and α-MSH, melanocytes were treated with 1 nM of each peptide, namely with CUV9900, NDP-MSH and α-MSH, for a total of 6 days, or with 1 nM peptides that were incubated for 5 hours at 37 °C prior to addition to the cultures, every other day, for a total of 6 days. Tyrosinase activity was measured at the end of treatment. In the experiments, cell number represents the mean percent of control of 3 determinations/ group ±SE, and tyrosinase activity data represent the mean percent of control of 6 determinations ±S.E. It should be noted that for the sake of reproducibility the experiment of strain 1513c of Fig. 9 was performed once more 6 months later than the experiment of Fig. 7. […] Melanocytes were treated for 3 days with the designated concentrations of CUV9900, NDP-MSH, or MSH, then maintained in absence of peptides for 4 days. Tyrosinase activity was determined 3 days after treatment. Comparison of stability of CUV9900, NDP-MSH and MSH was compared in 1513c, as shown in Fig. 7; the strain was treated for 6 days with 1 nM CUV9900, NDP-MSH or MSH with fresh medium and peptide replenished every 2 days. Melanocytes were treated according to the same experiment protocol but each peptide was incubated for 5-7 hours at 37 degrees Celsius. […] The assessment of tyrosinase was statistically different from control, as determined by ANOVA (p=<0.05).

[2] = test system: melanocytic strain 1505b and melanocytic strain 10.3c; test: UV-induced generation of hydrogen peroxide, luminol luminescence; details: 1 nM; for UV-induced hydrogen peroxide generation: 105 mJ/cm^2 UV, 0, 30 and 45 minutes after UV irradiation
Excerpt: as §1, §2

[3] = test system: melanocytic strains 1563c and 102b; test: Ultrastructural visualization of DOPA-stained HM, electron microscopy; details: 0.1 nM or 1 nM CUV9900 or 1 nM MSH
Protocol: as §3

melanocytes strain 105c = test: cAMP levels, radioimmunoassay; details: 45 min, 0.1 mM IBMX
Protocol: Dose-response experiments were carried out on three melanocytic strains, namely strains 1513c, 1505b and 105c melanocytes were treated with 1 pM-10 nM CUV9900 or NDP-MSH, or with 0.1-10 nM MSH for 45 minutes in the presence of 0.1 mM isobutyl methylxanthine (IBMX). The results obtained from strain 1513c are shown in Fig. 3, the results obtained from strain 1505b are shown in Fig. 5a and the results obtained from strain 105c are shown in Fig. 5b. The strains 1505b and 1513c were obtained from the same human adult while the strain 105c was obtained from another human adult.
Cyclic AMP is the second messenger for the melanocortin-1 receptor, and assessment is usually performed indicating cellular activity reflective of melanogenesis. Cyclic AMP levels were determined using ^125I-labeled radioimmunoassay kit (Perkin Elmer, Waltham, MA), in human melanocytes that were treated with 0 (control), 0.1-10.0 nM α-MSH, or 0.001-10 nM NDP-MSH or 0.001-10.0 nM CUV 9900 for 45 min. in the presence of 0.1 mM IBMX, a phosphodiesterase inhibitor to prevent cAMP degradation. Triplicate wells were included in each group, and duplicate samples from each well were assayed for cAMP levels. Each data point is the mean percent of control of 6 determinations/group ±S.E.

Substance | UV-induced hydrogen peroxide generation (melanocytic strain 10.3c) | UV-induced hydrogen peroxide generation (melanocytic strain 1505b) | melanosomes, electron microscopy [1] | effect of incubation of the peptide on stimulation of tyrosinase activity (melanocyte strain 1513c) | UV-induced hydrogen peroxide generation [2] | melanosomes in the perinuclear area and dendrites [3] | hydrogen peroxide generation in comparison with both NDP-MSH and MSH ([2]; at 45 minutes after irradiation) | elevation of cAMP in comparison to NDP (melanocytes strain 105c; 0.01 nM and 0.1 nM) | cAMP compared with MSH (melanocytes strain 105c; 0.1 nM, 1 nM and 10 nM)
Ac-Ser-Tyr-Ser-Met-Glu-His-Phe-Arg-Trp-Gly-Lys-Pro-Val-NH2 [alpha-MSH, reference compound] | significant reduction of UV-induced hydrogen peroxide generation | significant reduction of UV-induced hydrogen peroxide generation | increased mature (stage IV) melanosomes in the perinuclear area and more so in dendrites | totally abolished its effect on tyrosinase activity | – | – | – | – | –
Ac-Ser-Tyr-Ser-Met-Glu-His-Phe-Arg-Trp-Gly-Lys-Pro-Val-NH2 (SEQ ID NO: 3) [alpha-MSH, reference compound] | – | – | – | – | significant reduction | increased mature (stage IV) melanosomes | – | – | –
Ac-Nle-Glu His-D-Phe-Arg-Trp-NH2 (SEQ ID NO: 1) (Ac-[Nle]EH[dF]RW-NH2; SMILES CCCC[C@H](NC(C)=O)C(=O)N[C@@H](CCC(=O)O)C(=O)N[C@@H](Cc1c[nH]cn1)C(=O)N[C@H](Cc1ccccc1)C(=O)N[C@@H](CCCNC(=N)N)C(=O)N[C@@H](Cc1c[nH]c2ccccc12)C(N)=O) [CUV9900] | – | – | – | – | significant reduction | increased mature (stage IV) melanosomes | lower hydrogen peroxide generation | less elevation of cAMP | significantly higher
